# Test results published in patent publication US12042523B2, “Compositions and methods for managing or improving bone disorders, joint disorders, cartilage disorders, or a combination thereof” (Unigen, Inc., priority 2014, dated 2024).
# Tested on: urine CTX-II (C-telopeptide of type II collagen)
# Experiment: Urine CTX-II ELISA in MIA-induced OA model
# Type: in vivo, rat
# Protocol: Treatment started a week before MIA injection. […] On the induction day, isoflurane (Lot #[…] Enterprise Ltd. […], India) anesthetized rats were injected with 0.8 mg of MIA (Lot #A0352046, Acros Organics, New Jersey, USA) in 50 μL saline solution into the intra-articular pocket of left femorotibial (knee) joint using 26 G needle an hour after treatment. Normal control rats were injected with an equal volume of saline. […] Body weights were measured once a week to calculate the respective weekly dosage of each group. The merit of combining UP1306 and UP446 was then evaluated using the Colby's equation (Colby, 1967). Pain sensitivity percent inhibition values were used to determine the calculated efficacy values and compared to the observed percent inhibition values of the composition. CTX-II ELISA was performed according to the kit manufacturer's specifications. […] Rat urine samples were thawed on ice and diluted 1:3 with Sample Diluent. 100 μL of samples and standards were added to a 96-well plate pre-coated with CTX-II antibody. The plate was covered and incubated at 37° C. for 2 hours. The liquid was aspirated from each well, then 100 μL of Detection Reagent A working solution was added to each well. The plate was covered and incubated at 37° C. for 1 hour. The solution was aspirated from each well and the plate was washed three times with 1× Wash Buffer. 100 μL of Detection Reagent B working solution was added to each well, then the plate was covered and incubated at 37° C. for 1 hour. The solution was aspirated from each well and the plate was washed five times with 1× Wash Buffer. 90 μL of Substrate Solution was added to each well, then the plate was covered and incubated at 37° C. for 30 minutes. […] Stop Solution was added to each well, and the optical density at 450 nm was detected using a Tecan Genios plate reader. CTX-II concentrations for each sample were determined by multiplying by the dilution factor and fitting the value to the standard curve. To offset the variations in urine flow between rats, values were normalized to total urine protein.
# [1] = MIA-induced OA rats, urine, week 5 of daily oral treatment
compound,measurement,setting,value
O=C(O)Cc1ccccc1Nc1c(Cl)cccc1Cl [Diclofenac],"Ratio (CTX-II/Protein), uCTX-II normalized to total protein",[1],64.41
same,uCTX-II (Mean ± SD),[1],304 ± 233 ng/L
same,reduction in urine CTX-II,"after 5 weeks of daily oral treatment, diclofenac 10, UP1306+UP446 650, UP1306 400, UP446 250 mg/kg",31.33%
